Results from ChEMBL document CHEMBL5223085, “Agonist Lock Touched and Untouched Retinoic Acid Receptor-Related Orphan Receptor-γt (RORγt) Inverse Agonists: Classification Based on the Molecular Mechanisms of Action” (J Med Chem, 2021).

How the values were obtained:
[1] = target: T1, Nuclear receptor ROR-gamma (Homo sapiens, UniProt P51449); experiment: Displacement of 25-[26,27-3H2]-hydroxycholesterol from RORgammat (unknown origin) assessed as inhibition constant by scintillation proximity assay
T1 sequence (P51449 whole entry): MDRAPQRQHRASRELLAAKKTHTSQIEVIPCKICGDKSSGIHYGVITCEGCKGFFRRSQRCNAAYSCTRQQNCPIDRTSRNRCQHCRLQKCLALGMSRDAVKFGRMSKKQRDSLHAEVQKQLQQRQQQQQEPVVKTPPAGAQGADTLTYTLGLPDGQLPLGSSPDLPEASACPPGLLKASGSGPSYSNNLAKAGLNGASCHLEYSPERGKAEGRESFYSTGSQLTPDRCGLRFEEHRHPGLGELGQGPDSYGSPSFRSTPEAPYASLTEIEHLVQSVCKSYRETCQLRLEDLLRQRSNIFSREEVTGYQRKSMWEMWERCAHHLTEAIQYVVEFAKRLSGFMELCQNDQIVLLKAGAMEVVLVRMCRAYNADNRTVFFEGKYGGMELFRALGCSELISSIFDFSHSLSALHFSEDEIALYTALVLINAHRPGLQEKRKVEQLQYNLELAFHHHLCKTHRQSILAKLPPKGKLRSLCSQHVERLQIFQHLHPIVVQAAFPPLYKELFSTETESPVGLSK

[2] = target: T1, Nuclear receptor ROR-gamma; experiment: Inverse agonist activity against human RORgammat by FRET assay

CCS(=O)(=O)c1ccc(CC(=O)Nc2cnc3c(c2)CN(C[C@H]2CC[C@H](C(F)(F)F)CC2)[C@H]3C(C)C)nc1
Ki [1]: 3.7 nM

Cc1ccc([C@@H](NC(=O)Cc2ccc3oc(C(O)c4c(C)noc4C)cc3c2)c2ccccc2)c(C)c1 (stereo partly drawn)
IC50 [2]: 5 nM

Cc1ccc(C(NC(=O)Cc2ccc(OCc3c(C)noc3C)cc2)c2ccccc2)c(C)c1 (stereo not drawn)
IC50 [2]: 3 nM
